Drawing on BindingDB's records for PubMed 11082457 (Centre De Recherches De Croissy, 2000), this text covers Ki for one molecule.

For orientation: Ki means the equilibrium dissociation constant of an inhibitor or competing ligand from its target. A high value points to weaker binding.

Assay [1] deals with Sodium-dependent noradrenaline transporter (Homo sapiens, UniProt P23975).
Assay [2] concerns the target T1, Alpha-1B adrenergic receptor (Homo sapiens, UniProt P35368).
T1 sequence (P35368 whole entry): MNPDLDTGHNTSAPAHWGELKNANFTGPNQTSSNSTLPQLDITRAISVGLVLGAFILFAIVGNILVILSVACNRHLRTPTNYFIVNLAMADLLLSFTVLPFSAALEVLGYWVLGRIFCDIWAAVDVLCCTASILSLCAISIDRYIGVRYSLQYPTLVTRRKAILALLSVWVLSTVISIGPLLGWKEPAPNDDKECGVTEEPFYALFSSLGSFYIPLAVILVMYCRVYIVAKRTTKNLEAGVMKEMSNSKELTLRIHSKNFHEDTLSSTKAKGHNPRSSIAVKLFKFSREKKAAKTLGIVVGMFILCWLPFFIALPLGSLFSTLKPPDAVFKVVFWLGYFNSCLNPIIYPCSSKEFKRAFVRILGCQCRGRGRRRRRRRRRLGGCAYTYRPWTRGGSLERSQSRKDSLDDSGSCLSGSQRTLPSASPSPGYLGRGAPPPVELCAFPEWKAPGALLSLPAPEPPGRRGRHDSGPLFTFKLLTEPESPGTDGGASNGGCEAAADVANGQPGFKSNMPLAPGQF

The target in assay [3] is T2, Amine oxidase [flavin-containing] B (Rattus norvegicus, UniProt P19643).
T2 sequence (P19643 whole entry): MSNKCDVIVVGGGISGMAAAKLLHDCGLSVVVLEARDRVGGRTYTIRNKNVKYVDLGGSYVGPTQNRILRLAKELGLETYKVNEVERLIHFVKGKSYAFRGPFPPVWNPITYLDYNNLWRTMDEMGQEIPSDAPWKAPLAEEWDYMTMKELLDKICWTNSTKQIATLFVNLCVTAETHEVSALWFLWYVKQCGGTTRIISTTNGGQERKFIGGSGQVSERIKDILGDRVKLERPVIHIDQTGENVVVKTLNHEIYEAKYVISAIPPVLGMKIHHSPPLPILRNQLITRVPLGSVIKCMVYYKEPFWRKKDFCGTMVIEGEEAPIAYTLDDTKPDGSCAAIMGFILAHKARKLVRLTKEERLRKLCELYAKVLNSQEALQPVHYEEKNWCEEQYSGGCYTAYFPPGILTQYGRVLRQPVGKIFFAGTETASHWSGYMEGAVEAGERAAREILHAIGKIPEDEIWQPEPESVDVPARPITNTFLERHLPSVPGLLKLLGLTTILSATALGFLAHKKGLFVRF

Assay [4] concerns the target T3, Amine oxidase [flavin-containing] A (Rattus norvegicus, UniProt P21396).
T3 sequence (P21396 whole entry): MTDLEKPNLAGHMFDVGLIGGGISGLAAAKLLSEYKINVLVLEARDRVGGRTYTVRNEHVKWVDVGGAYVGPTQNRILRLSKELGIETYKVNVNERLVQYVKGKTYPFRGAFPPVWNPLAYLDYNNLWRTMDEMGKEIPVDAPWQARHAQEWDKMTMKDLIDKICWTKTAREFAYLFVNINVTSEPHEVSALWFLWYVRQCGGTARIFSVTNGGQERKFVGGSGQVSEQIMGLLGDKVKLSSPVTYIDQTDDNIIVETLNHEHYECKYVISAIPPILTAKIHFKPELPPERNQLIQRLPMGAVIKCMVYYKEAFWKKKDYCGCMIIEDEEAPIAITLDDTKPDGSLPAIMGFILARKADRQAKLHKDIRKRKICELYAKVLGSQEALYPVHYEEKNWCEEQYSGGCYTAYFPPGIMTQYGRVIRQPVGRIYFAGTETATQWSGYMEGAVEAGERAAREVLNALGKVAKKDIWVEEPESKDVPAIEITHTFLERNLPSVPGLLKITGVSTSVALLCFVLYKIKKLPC

The target in the next assay is Nischarin (Rattus norvegicus, UniProt Q4G017).
For assay [5], the target named is T4, Alpha-1D adrenergic receptor (Homo sapiens, UniProt P25100).
T4 sequence (P25100 whole entry): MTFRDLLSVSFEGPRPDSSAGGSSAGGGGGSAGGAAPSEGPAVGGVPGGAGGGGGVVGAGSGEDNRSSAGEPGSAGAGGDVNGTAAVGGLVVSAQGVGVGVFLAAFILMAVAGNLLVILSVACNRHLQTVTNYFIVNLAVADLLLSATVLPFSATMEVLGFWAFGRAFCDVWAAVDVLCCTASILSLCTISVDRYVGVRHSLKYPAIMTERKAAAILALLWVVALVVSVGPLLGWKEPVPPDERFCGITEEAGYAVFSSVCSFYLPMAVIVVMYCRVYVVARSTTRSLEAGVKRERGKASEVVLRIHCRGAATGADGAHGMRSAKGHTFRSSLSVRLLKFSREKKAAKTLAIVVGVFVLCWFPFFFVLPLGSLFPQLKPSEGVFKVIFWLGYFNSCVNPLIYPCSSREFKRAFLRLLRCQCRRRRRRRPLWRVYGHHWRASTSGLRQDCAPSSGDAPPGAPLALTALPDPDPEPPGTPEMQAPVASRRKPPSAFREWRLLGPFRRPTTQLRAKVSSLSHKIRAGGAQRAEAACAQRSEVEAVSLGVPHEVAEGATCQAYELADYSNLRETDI

Sodium-dependent noradrenaline transporter, sequence (P23975 whole entry): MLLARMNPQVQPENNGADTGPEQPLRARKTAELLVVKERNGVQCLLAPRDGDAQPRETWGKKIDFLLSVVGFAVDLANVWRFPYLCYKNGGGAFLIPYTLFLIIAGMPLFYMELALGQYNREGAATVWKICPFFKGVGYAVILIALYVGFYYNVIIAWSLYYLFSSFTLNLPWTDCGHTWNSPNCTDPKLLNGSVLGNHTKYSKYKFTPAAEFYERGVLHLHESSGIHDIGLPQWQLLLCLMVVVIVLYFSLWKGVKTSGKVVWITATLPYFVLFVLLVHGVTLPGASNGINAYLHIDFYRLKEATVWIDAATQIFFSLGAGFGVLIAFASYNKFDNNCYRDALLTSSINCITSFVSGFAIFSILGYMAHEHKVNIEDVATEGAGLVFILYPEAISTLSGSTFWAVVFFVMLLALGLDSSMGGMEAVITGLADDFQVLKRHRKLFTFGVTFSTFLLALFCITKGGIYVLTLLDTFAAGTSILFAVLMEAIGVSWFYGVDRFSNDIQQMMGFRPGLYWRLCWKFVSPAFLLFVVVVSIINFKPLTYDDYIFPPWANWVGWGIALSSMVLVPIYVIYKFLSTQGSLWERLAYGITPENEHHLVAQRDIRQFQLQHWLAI
Nischarin, sequence (Q4G017 whole entry): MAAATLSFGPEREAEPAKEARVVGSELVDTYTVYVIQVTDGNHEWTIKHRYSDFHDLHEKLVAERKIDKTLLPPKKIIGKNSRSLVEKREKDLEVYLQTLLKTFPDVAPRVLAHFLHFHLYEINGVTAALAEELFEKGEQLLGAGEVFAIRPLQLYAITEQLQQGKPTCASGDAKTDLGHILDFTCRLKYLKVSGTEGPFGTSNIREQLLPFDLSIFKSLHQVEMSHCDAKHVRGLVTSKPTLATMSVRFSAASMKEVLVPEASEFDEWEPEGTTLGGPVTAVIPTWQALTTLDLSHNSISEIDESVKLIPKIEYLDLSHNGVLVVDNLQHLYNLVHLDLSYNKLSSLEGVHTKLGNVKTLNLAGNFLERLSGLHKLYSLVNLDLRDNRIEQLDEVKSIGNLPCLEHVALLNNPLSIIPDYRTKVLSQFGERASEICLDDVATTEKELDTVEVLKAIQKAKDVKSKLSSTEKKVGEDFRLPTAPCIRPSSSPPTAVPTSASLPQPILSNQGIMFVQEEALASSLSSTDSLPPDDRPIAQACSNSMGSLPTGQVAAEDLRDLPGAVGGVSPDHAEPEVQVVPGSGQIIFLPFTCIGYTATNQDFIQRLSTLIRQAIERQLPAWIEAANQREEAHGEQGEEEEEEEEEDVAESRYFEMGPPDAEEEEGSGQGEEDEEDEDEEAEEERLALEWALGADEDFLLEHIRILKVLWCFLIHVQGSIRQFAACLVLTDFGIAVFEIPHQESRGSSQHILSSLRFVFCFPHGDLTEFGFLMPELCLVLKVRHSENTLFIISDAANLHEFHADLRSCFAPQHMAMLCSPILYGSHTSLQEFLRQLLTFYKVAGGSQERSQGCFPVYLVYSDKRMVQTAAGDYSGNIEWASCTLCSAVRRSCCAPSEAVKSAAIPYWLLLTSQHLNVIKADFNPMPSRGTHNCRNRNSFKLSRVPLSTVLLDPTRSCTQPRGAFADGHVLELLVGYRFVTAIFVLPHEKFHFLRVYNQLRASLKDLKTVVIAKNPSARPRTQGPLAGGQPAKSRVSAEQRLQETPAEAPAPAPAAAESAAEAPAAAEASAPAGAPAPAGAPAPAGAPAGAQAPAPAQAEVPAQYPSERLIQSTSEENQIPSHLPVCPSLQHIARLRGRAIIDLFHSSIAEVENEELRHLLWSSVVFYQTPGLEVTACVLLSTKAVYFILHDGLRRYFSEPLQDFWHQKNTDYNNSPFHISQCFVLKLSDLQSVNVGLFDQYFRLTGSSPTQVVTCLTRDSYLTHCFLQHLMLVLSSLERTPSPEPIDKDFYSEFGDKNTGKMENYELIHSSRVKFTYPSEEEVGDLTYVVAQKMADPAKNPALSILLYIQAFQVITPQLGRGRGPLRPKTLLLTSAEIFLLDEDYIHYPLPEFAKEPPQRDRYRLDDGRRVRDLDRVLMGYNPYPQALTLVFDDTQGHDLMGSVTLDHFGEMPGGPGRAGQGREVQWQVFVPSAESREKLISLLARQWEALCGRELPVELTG

Turning to `Clc1cccc(Cl)c1N=C1NCCN1` [2-(2,6-dichloroanilino)-2-imidazoline], the Ki in assay [1] is 1000 nM; in assay [2], 316 nM; in assay [3], 1000 nM; in assay [4], 1000 nM; at Nischarin it was 1000 nM; in assay [5], 126 nM.
